Drawing on patent US20250009742A1 (priority 2021, published 2025), this text covers IC50, CC50 and viability for 19 molecules.

Data set [1] deals with intracellular HBV DNA. Nature of the data set: Real-time PCR for intracellular HBV DNA in HepAD38 cells. The note with it: Hepatitis B virus, HePAD38, 65 h, 65 hours treatment. The class given is cell-based. In general terms: Quantitative PCR measures a nucleic acid by following its amplification.
Data set [2] can be described thus: Cell viability assay (EZ-Cytox), cytotoxicity. Type of data set: cell-based. The note with it: human, HepAD38 cells; for viability at 65 h, 100 µM: read-out: Cytotoxicity % Livability (@100 μM). The method, then: HepAD38 cells were cultured for 2 days in Dulbecco's Modified Eagle's medium (Welgene, LM001-05) supplemented with 10% FBS without tetracycline. […] After 65 hours of treatment, viability was measured using EZ-Cytox cell viability assay kit (Daeil Lab Service) according to the manufacturer's instructions. The absorbance was measured at 450 nm using a spectrophotometer (Spark, Tecan).

A word on the IC50: it is the concentration at which inhibition is half-maximal. The low end stands for greater potency, the high end for weaker potency. For orientation: CC50 means the concentration at which the toxic effect on the cells reaches its halfway point. For `COc1ncc(N(Cc2cc(C#N)[nH]n2)C(=O)Nc2ccc(C#N)c(Cl)c2)cn1` [Example 9], the IC50 in data set [1] is 310 nM. Also, in data set [2], the 50% cytotoxic concentration (CC50) at 65 h is greater than 100000 nM and the viability at 65 h, 100 µM is 105%.

In data set [1], `COc1ncc(N(Cc2cc(C(F)(F)F)[nH]n2)C(=O)Nc2cc(F)c(F)c(Cl)n2)cn1` [Example 13, 3-(6-chloro-4,5-difluoropyridin-2-yl)-1-(2-methoxypyrimidin-5-yl)-1-((5-(trifluoromethyl)-1H-pyrazol-3-yl)methyl)urea] registered an IC50 of 210 nM. Moreover, in data set [2], the CC50 at 65 h is greater than 100000 nM and the viability at 65 h, 100 µM was 100%.

`CS(=O)(=O)Nc1ccc(N(Cc2n[nH]c3c2CCOC3)C(=O)Nc2ccc(F)c(Cl)c2)cc1` [Example 16, N-(4-(3-(3-chloro-4-fluorophenyl)-1-((1,4,5,7-tetrahydropyrano[3,4-c]pyrazol-3-yl)methyl)ureido)phenyl)methanesulfonamide] returned an IC50 in data set [1] greater than 1100 nM. In addition, the half-maximal cytotoxic concentration (CC50) at 65 h in data set [2] was 97600 nM.

Take `CS(=O)(=O)Nc1ccc(N(Cc2n[nH]c3c2CCOC3)C(=O)Nc2ccc(F)c(Cl)c2)cn1` [Example 17, N-(5-(3-(3-chloro-4-fluorophenyl)-1-((1,4,5,7-tetrahydropyrano[3,4-c]pyrazol-3-yl)methyl)ureido)pyridin-2-yl)methanesulfonamide]: the IC50 in data set [1] was greater than 1100 nM. The molecule further yielded a CC50 at 65 h in data set [2] greater than 100000 nM.

Molecule `CS(=O)(=O)Nc1ccc(N(Cc2n[nH]c3c2CCCO3)C(=O)Nc2ccc(F)c(Cl)c2)cn1` [Example 18, N-(5-(3-(3-chloro-4-fluorophenyl)-1-((1,4,5,6-tetrahydropyrano[2,3-c]pyrazol-3-yl)methyl)ureido)pyridin-2-yl)methanesulfonamide] came in with an IC50 in data set [1] greater than 1100 nM. Also, the CC50 at 65 h in data set [2] was greater than 100000 nM.

Consider `CS(=O)(=O)Nc1ccc(N(Cc2n[nH]c3c2CCCO3)C(=O)Nc2ccc(F)c(Cl)c2)cc1` [Example 19, N-(4-(3-(3-chloro-4-fluorophenyl)-1-((1,4,5,6-tetrahydropyrano[2,3-c]pyrazol-3-yl)methyl)ureido)phenyl)methanesulfonamide], for which the IC50 in data set [1] is greater than 1100 nM. In data set [2], this molecule gave a CC50 at 65 h greater than 100000 nM.

For `CC(=O)c1ccc(N(Cc2n[nH]c3c2CCCO3)C(=O)Nc2ccc(F)c(Cl)c2)cn1` [Example 20, 1-(6-acetylpyridin-3-yl)-3-(3-chloro-4-fluorophenyl)-1-((1,4,5,6-tetrahydropyrano[2,3-c]pyrazol-3-yl)methyl)urea], the half-maximal inhibitory concentration (IC50) in data set [1] is greater than 1100 nM. Moreover, in data set [2], the 50% cytotoxic concentration (CC50) at 65 h is greater than 100000 nM.

In data set [1], `CC(=O)c1ccc(N(Cc2n[nH]c3c2CCOC3)C(=O)Nc2ccc(F)c(Cl)c2)cn1` [Example 21, 1-(6-acetylpyridin-3-yl)-3-(3-chloro-4-fluorophenyl)-1-((1,4,5,7-tetrahydropyrano[3,4-c]pyrazol-3-yl)methyl)urea] came in with a 50% inhibitory concentration (IC50) greater than 1100 nM. Besides, in data set [2], the CC50 at 65 h is greater than 100000 nM.

In data set [1], `CNS(=O)(=O)c1ccc(N(Cc2n[nH]c3c2CCOC3)C(=O)Nc2ccc(F)c(Cl)c2)cc1` [Example 23, 4-(3-(3-chloro-4-fluorophenyl)-1-((1,4,5,7-tetrahydropyrano[3,4-c]pyrazol-3-yl)methyl)ureido)-N-methylbenzenesulfonamide] gave an IC50 greater than 1100 nM. In data set [2], this molecule gave a CC50 at 65 h greater than 100000 nM.

Regarding `Cn1cc(N(Cc2n[nH]c3c2CCCC3)C(=O)Nc2ccc(F)c(Cl)c2)cn1` [Example 24, 3-(3-chloro-4-fluorophenyl)-1-(1-methyl-1H-pyrazol-4-yl)-1-((4,5,6,7-tetrahydro-1H-indazol-3-yl)methyl)urea], in data set [1], the half-maximal inhibitory concentration (IC50) stood at 160 nM. In data set [2], the half-maximal cytotoxic concentration (CC50) at 65 h was greater than 100000 nM and the viability at 65 h, 100 µM worked out at 53.4%.

In data set [1], `Cn1ccc(N(Cc2n[nH]c3c2CCCO3)C(=O)Nc2ccc(F)c(Cl)c2)n1` [Example 25, 3-(3-chloro-4-fluorophenyl)-1-(1-methyl-1H-pyrazol-3-yl)-1-((1,4,5,6-tetrahydropyrano[2,3-c]pyrazol-3-yl)methyl)urea] registered an IC50 greater than 1100 nM. In data set [2], the CC50 at 65 h was greater than 100000 nM and the viability at 65 h, 100 µM is 100%.

`Cc1cc(N(Cc2n[nH]c3c2CCCO3)C(=O)Nc2ccc(F)c(Cl)c2)no1` [Example 26, 3-(3-chloro-4-fluorophenyl)-1-(5-methylisoxazol-3-yl)-1-((1,4,5,6-tetrahydropyrano[2,3-c]pyrazol-3-yl)methyl)urea]: in data set [1], the IC50 was greater than 1100 nM. Also, in data set [2], the CC50 at 65 h is greater than 100000 nM and the viability at 65 h, 100 µM is 93%.

On to `COc1ncc(N(Cc2cc(C(F)(F)F)[nH]n2)C(=O)Nc2ccc(F)c(Cl)c2)c(C)n1` [Example 28, 3-(3-chloro-4-fluorophenyl)-1-(2-methoxy-4-methylpyrimidin-5-yl)-1-((5-(trifluoromethyl)-1H-pyrazol-3-yl)methyl)urea], for which the IC50 in data set [1] was determined as 60 nM. For the same molecule, in data set [2], it took 47200 nM to reach half-maximal cytotoxicity (CC50 at 65 h) and the viability at 65 h, 100 µM turned out to be 7%.

In the case of `COc1cc(C)c(N(Cc2cc(C(F)(F)F)[nH]n2)C(=O)Nc2ccc(F)c(Cl)c2)c(C)c1` [Example 29, 3-(3-chloro-4-fluorophenyl)-1-(4-methoxy-2,6-dimethylphenyl)-1-((5-(trifluoromethyl)-1H-pyrazol-3-yl)methyl)urea], the IC50 in data set [1] was greater than 1100 nM. In data set [2], it took 12200 nM to reach half-maximal cytotoxicity (CC50 at 65 h) and the viability at 65 h, 100 µM amounted to 6.9%.

The molecule `COc1nc(C)c(N(Cc2cc(C(F)(F)F)[nH]n2)C(=O)Nc2ccc(F)c(Cl)c2)c(C)n1` [Example 30, 3-(3-chloro-4-fluorophenyl)-1-(2-methoxy-4,6-dimethylpyrimidin-5-yl)-1-((5-(trifluoromethyl)-1H-pyrazol-3-yl)methyl)urea] displayed a 50% inhibitory concentration (IC50) in data set [1] greater than 1100 nM. Besides, in data set [2], the half-maximal cytotoxic concentration (CC50) at 65 h was greater than 100000 nM and the viability at 65 h, 100 µM was 52.4%.

The molecule `COc1ccc(N(Cc2nn(C)c3c2COCC3)C(=O)Nc2ccc(F)c(Cl)c2)cc1` [Example 39, 3-(3-chloro-4-fluorophenyl)-1-(4-methoxyphenyl)-1-((1-methyl-1,4,6,7-tetrahydropyrano[4,3-c]pyrazol-3-yl)methyl)urea] yielded an IC50 in data set [1] of 330 nM. For the same molecule, in data set [2], the CC50 at 65 h is greater than 100000 nM and the viability at 65 h, 100 µM was 96%.

As to `COc1ccc(N(Cc2n[nH]c3c2COCC3)C(=O)Nc2ccc(F)c(Cl)c2)cn1` [Example 55, 3-(3-chloro-4-fluorophenyl)-1-(6-methoxypyridin-3-yl)-1-((1,4,6,7-tetrahydropyrano[4,3-c]pyrazol-3-yl)methyl)urea], half-maximal inhibition in data set [1] (IC50) was put at 17 nM. Besides, in data set [2], the CC50 at 65 h is greater than 100000 nM and the viability at 65 h, 100 µM was 102%.

In turn, `COc1ccc(N(Cc2nn(CCOC3CCCCO3)c3c2CCC3)C(=O)Nc2ccc(F)c(Cl)c2)cn1` (stereo not drawn) [Example 66, 3-(3-chloro-4-fluorophenyl)-1-(6-methoxypyridin-3-yl)-1-((1-(2-(tetrahydro-2H-pyran-2-yloxy)ethyl)-1,4,5,6-tetrahydrocyclopenta[c]pyrazol-3-yl)methyl)urea] yielded a half-inhibitory concentration (IC50) in data set [1] greater than 300 nM. The molecule also registered a CC50 at 65 h in data set [2] of 81900 nM.

`COc1ccc(N(Cc2nn(CCO)c3c2CCC3)C(=O)Nc2ccc(F)c(Cl)c2)cn1` [Example 67, 3-(3-chloro-4-fluorophenyl)-1-((1-(2-hydroxyethyl)-1,4,5,6-tetrahydrocyclopenta[c]pyrazol-3-yl)methyl)-1-(6-methoxypyridin-3-yl)urea] returned an IC50 in data set [1] greater than 300 nM. The CC50 at 65 h in data set [2] was greater than 100000 nM.
